Assay results reported in PubChem BioAssay (NCI).
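Each compound was tested at five concentrations against cells in 96-well plates for 48 hours. GI50 = concentration required for 50% inhibition of growth. TGI is the concentration that stops growth completely.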

Legend:
Experiment in all cases: growth of human tumour cells (NCI), 48 h
OVCAR-5 ovarian = tested on: OVCAR-5 ovarian
SF-539 CNS = tested on: SF-539 CNS
NCI/ADR-RES ovarian = tested on: NCI/ADR-RES ovarian
EKVX NSCLC = tested on: EKVX NSCLC
HCT-116 colon = tested on: HCT-116 colon
CAKI-1 renal = tested on: CAKI-1 renal
TK-10 renal = tested on: TK-10 renal
HS 578T breast = tested on: HS 578T breast
SNB-19 CNS = tested on: SNB-19 CNS
SK-MEL-5 melanoma = tested on: SK-MEL-5 melanoma
MDA-MB-231 breast = tested on: MDA-MB-231 breast
SK-MEL-28 melanoma = tested on: SK-MEL-28 melanoma
SF-295 CNS = tested on: SF-295 CNS
HOP-62 NSCLC = tested on: HOP-62 NSCLC
COLO 205 colon = tested on: COLO 205 colon
RXF 393 renal = tested on: RXF 393 renal
HL-60(TB) leukemia = tested on: HL-60(TB) leukemia
NCI-H23 lung = tested on: NCI-H23 lung
UO-31 renal = tested on: UO-31 renal
UACC-257 melanoma = tested on: UACC-257 melanoma
UACC-62 melanoma = tested on: UACC-62 melanoma
SW-620 colon = tested on: SW-620 colon
OVCAR-8 ovarian = tested on: OVCAR-8 ovarian
U251 CNS = tested on: U251 CNS
BT-549 breast = tested on: BT-549 breast
OVCAR-3 ovarian = tested on: OVCAR-3 ovarian
HCC-2998 colon = tested on: HCC-2998 colon
DU-145 prostate = tested on: DU-145 prostate
SR leukemia = tested on: SR leukemia
ACHN renal = tested on: ACHN renal
M14 melanoma = tested on: M14 melanoma
MALME-3M melanoma = tested on: MALME-3M melanoma
786-0 renal = tested on: 786-0 renal
SK-MEL-2 melanoma = tested on: SK-MEL-2 melanoma
SF-268 CNS = tested on: SF-268 CNS
HCT-15 colon = tested on: HCT-15 colon
IGROV1 ovarian = tested on: IGROV1 ovarian
PC-3 prostate = tested on: PC-3 prostate
SN12C renal = tested on: SN12C renal
HT29 colon = tested on: HT29 colon
NCI-H226 lung = tested on: NCI-H226 lung
KM12 colon = tested on: KM12 colon
MDA-MB-435 = tested on: MDA-MB-435
MOLT-4 leukemia = tested on: MOLT-4 leukemia
A498 renal = tested on: A498 renal
K-562 leukemia = tested on: K-562 leukemia
NCI-H522 lung = tested on: NCI-H522 lung
A549 NSCLC = tested on: A549 NSCLC
SNB-75 CNS = tested on: SNB-75 CNS
CCRF-CEM leukemia = tested on: CCRF-CEM leukemia
SK-OV-3 ovarian = tested on: SK-OV-3 ovarian
T-47D breast = tested on: T-47D breast
OVCAR-4 ovarian = tested on: OVCAR-4 ovarian
HOP-92 NSCLC = tested on: HOP-92 NSCLC
NCI-H460 lung = tested on: NCI-H460 lung

CC(=O)Nc1cccc(Nc2nc(N[C@@H](C)c3ccccc3)c3ccccc3n2)c1
GI50 (OVCAR-5 ovarian): 1390 nM
TGI (OVCAR-5 ovarian): 11600 nM
GI50 (SF-539 CNS): 318 nM
TGI (SF-539 CNS): 1140 nM
GI50 (NCI/ADR-RES ovarian): 464 nM
TGI (NCI/ADR-RES ovarian): 4750 nM
GI50 (EKVX NSCLC): 656 nM
TGI (EKVX NSCLC): 16500 nM
GI50 (HCT-116 colon): 459 nM
TGI (HCT-116 colon): 1940 nM
GI50 (CAKI-1 renal): 374 nM
TGI (CAKI-1 renal): 2770 nM
GI50 (TK-10 renal): 6690 nM
TGI (TK-10 renal): 21200 nM
GI50 (HS 578T breast): 361 nM
TGI (HS 578T breast): 2510 nM
GI50 (SNB-19 CNS): 500 nM
TGI (SNB-19 CNS): 12600 nM
GI50 (SK-MEL-5 melanoma): 292 nM
TGI (SK-MEL-5 melanoma): 1070 nM
GI50 (MDA-MB-231 breast): 942 nM
TGI (MDA-MB-231 breast): 3600 nM
GI50 (SK-MEL-28 melanoma): 1000 nM
TGI (SK-MEL-28 melanoma): 2430 nM
GI50 (SF-295 CNS): 377 nM
TGI (SF-295 CNS): 1560 nM
GI50 (HOP-62 NSCLC): 808 nM
TGI (HOP-62 NSCLC): 7080 nM
GI50 (COLO 205 colon): 625 nM
TGI (COLO 205 colon): 4340 nM
GI50 (RXF 393 renal): 154 nM
TGI (RXF 393 renal): 581 nM
GI50 (HL-60(TB) leukemia): 303 nM
TGI (HL-60(TB) leukemia): 868 nM
GI50 (NCI-H23 lung): 387 nM
TGI (NCI-H23 lung): 2690 nM
GI50 (UO-31 renal): 697 nM
TGI (UO-31 renal): 2330 nM
GI50 (UACC-257 melanoma): 1180 nM
TGI (UACC-257 melanoma): 3430 nM
GI50 (UACC-62 melanoma): 380 nM
TGI (UACC-62 melanoma): 1930 nM
GI50 (SW-620 colon): 425 nM
TGI (SW-620 colon): 5280 nM
TGI (OVCAR-8 ovarian): 9300 nM
GI50 (U251 CNS): 525 nM
TGI (U251 CNS): 2900 nM
GI50 (BT-549 breast): 3620 nM
TGI (BT-549 breast): 18700 nM
GI50 (OVCAR-3 ovarian): 359 nM
TGI (OVCAR-3 ovarian): 1540 nM
GI50 (HCC-2998 colon): 982 nM
TGI (HCC-2998 colon): 2530 nM
GI50 (DU-145 prostate): 651 nM
TGI (DU-145 prostate): 6400 nM
GI50 (SR leukemia): 253 nM
TGI (SR leukemia): 2580 nM
GI50 (ACHN renal): 672 nM
TGI (ACHN renal): 6900 nM
GI50 (M14 melanoma): 401 nM
TGI (M14 melanoma): 1610 nM
GI50 (MALME-3M melanoma): 470 nM
TGI (MALME-3M melanoma): 1900 nM
GI50 (786-0 renal): 630 nM
TGI (786-0 renal): 4280 nM
GI50 (SK-MEL-2 melanoma): 832 nM
TGI (SK-MEL-2 melanoma): 6010 nM
GI50 (SF-268 CNS): 571 nM
TGI (SF-268 CNS): 3280 nM
GI50 (HCT-15 colon): 355 nM
TGI (HCT-15 colon): 1910 nM
GI50 (IGROV1 ovarian): 507 nM
TGI (IGROV1 ovarian): 2950 nM
GI50 (PC-3 prostate): 408 nM
TGI (PC-3 prostate): 11400 nM
GI50 (SN12C renal): 608 nM
TGI (SN12C renal): 2860 nM
GI50 (HT29 colon): 362 nM
TGI (HT29 colon): 5050 nM
GI50 (NCI-H226 lung): 738 nM
TGI (NCI-H226 lung): 21600 nM
GI50 (KM12 colon): 439 nM
TGI (KM12 colon): 6450 nM
GI50 (MDA-MB-435): 169 nM
TGI (MDA-MB-435): 419 nM
GI50 (MOLT-4 leukemia): 491 nM
TGI (MOLT-4 leukemia): 6820 nM
GI50 (A498 renal): 278 nM
TGI (A498 renal): 1500 nM
GI50 (K-562 leukemia): 270 nM
TGI (K-562 leukemia): > 100000 nM
GI50 (NCI-H522 lung): 322 nM
TGI (NCI-H522 lung): 2180 nM
GI50 (A549 NSCLC): 601 nM
TGI (A549 NSCLC): 5970 nM
GI50 (SNB-75 CNS): 194 nM
TGI (SNB-75 CNS): 820 nM
GI50 (CCRF-CEM leukemia): 372 nM
GI50 (SK-OV-3 ovarian): 679 nM
TGI (SK-OV-3 ovarian): 15200 nM
GI50 (T-47D breast): 512 nM
TGI (T-47D breast): 6470 nM
GI50 (OVCAR-4 ovarian): 784 nM
TGI (OVCAR-4 ovarian): 11800 nM
GI50 (HOP-92 NSCLC): 373 nM
TGI (HOP-92 NSCLC): 4940 nM
GI50 (NCI-H460 lung): 356 nM
TGI (NCI-H460 lung): 2100 nM
